Results on 15 compounds are retold here after PubChem BioAssay (NCI).

SMILES strings stand for the structures. “And” between values parts separate entries of the source, which are not always exact repeats. Identical values can stand only once.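 Compound exposure: 48 hours, 5 concentrations, 96-well plates. GI50 marks 50% less growth. Definition used: TGI = concentration required for complete inhibition of growth.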

Holding throughout (assay): growth of human tumour cells (NCI), 48 h
Assay [1] deals with MOLT-4 leukemia.
In assay [2] the test system is SK-MEL-5 melanoma.
Assay [3] deals with HOP-62 NSCLC.
In assay [4] the test system is OVCAR-4 ovarian.
Assay [5] has as its system T-47D breast.
In assay [6] the test system is U251 CNS.
Assay [7] relates to NCI-H522 lung.
Assay [8] relates to ACHN renal.
The test system of assay [9] is TK-10 renal.
Assay [10] concerns EKVX NSCLC.
The test system of assay [11] is SNB-19 CNS.
In assay [12] the test system is PC-3 prostate.
In assay [13] the test system is MCF7 breast.
Assay [14] relates to HS 578T breast.
Assay [15] has as its system OVCAR-8 ovarian.
The subject of assay [16] is RXF 393 renal.
The test system of assay [17] is KM12 colon.
The subject of assay [18] is SF-295 CNS.

Turning to `C[N+]1(C)CCOC(O)(c2ccccc2)C1` (configuration not stated), the TGI in assay [1], in assay [2], in [3], in assay [4], in [5] and in [6] was greater than 100 µM in each case. The TGI in [7], in assay [8], in [9], in [10], in [11] and in assay [12] was greater than 100 µM in each case. The TGI in [13], in assay [14], in [15], in assay [16], in assay [17] and in assay [18] was greater than 100 µM each time.

`CC(C)(Cl)C(Br)CCC(CBr)=C(Cl)CCl` (mixture of isomers): the TGI in [1] was 1.96 µM; in assay [2] it was 3.87 µM; in [3], greater than 6.85 µM; in assay [4], greater than 5.87 µM; in assay [5] it was 5.33 µM; in assay [6] it was 3.16 µM. Further, the TGI in [7] is 3.22 µM; in assay [8], greater than 8.98 µM; in assay [9], greater than 5.76 µM; in [10], greater than 10 µM; in [11], 9.73 µM; in assay [12] it was 5.56 µM. Moreover, the TGI in [13] was 4.79 µM; in assay [14], greater than 10 µM; in [15], 3.14 µM; in assay [16], 4.97 µM; in [17] it was 4.1 µM; in assay [18], greater than 10 µM.

Consider `Cc1nc2c(=O)n(C)c(=O)nc-2n(CCO)c1C`, for which the TGI in assay [1], in [2], in assay [3], in [4], in assay [5] and in [6] was greater than 100 µM each time. In addition, the TGI in assay [7], in assay [8], in assay [9], in assay [10], in assay [11] and in assay [12] was greater than 100 µM each time. The TGI in assay [13], in [14], in [15], in [16], in assay [17] and in assay [18] was greater than 100 µM in each case.

As to `COc1ccc(C2C3=C(COC3=O)OC(C)(C)Oc3cc4c(cc32)OCO4)cc1` (configuration not stated), the TGI in assay [1] is greater than 83.8 µM; in assay [2], 99.8 µM; in assay [3] it was greater than 100 µM; in assay [4], greater than 100 µM; in [5] it was greater than 87.4 µM; in assay [6] it was greater than 100 µM. In addition, the TGI in assay [7] is greater than 69.5 µM; in [8], greater than 100 µM; in assay [9], 97 µM; in [10] it was greater than 92.7 µM; in [11] it was greater than 100 µM; in assay [12], 73.4 µM. Besides, the TGI in assay [13] is greater than 100 µM; in assay [14], greater than 100 µM; in assay [15], greater than 100 µM; in [16] it was 79 µM; in assay [17], greater than 81 µM; in assay [18], greater than 100 µM.

Take `O=S(=O)(O)c1cc(N=Nc2cc(S(=O)(=O)O)c3ccccc3c2O)ccc1/C=C/c1ccc(N=Nc2cc(S(=O)(=O)O)c3ccccc3c2O)cc1S(=O)(=O)O`: the GI50 is 36.3 µM in assay [1] and greater than 807 µM in assay [4]. Also, the TGI was 51.1 µM and 82.5 µM in assay [1]; 239 µM in assay [2]; greater than 1000 µM in assay [3]; greater than 1000 µM in assay [4]; greater than 1000 µM in [5]; greater than 1000 µM in assay [6]. The TGI in assay [7] is greater than 669 µM; in assay [8] it was greater than 755 µM; in assay [9], 220 µM; in assay [10], greater than 632 µM; in assay [11], greater than 1000 µM; in [12] it was 986 µM. Moreover, the TGI in assay [13] was greater than 1000 µM; in assay [14], 756 µM; in [15], greater than 1000 µM; in [16], greater than 1000 µM; in assay [17] it was greater than 365 µM; in assay [18] it was greater than 731 µM.

On to `CCN(CC)CCSc1n[nH]c(-c2c[nH]c3nc(C)ccc3c2=O)n1`, for which the TGI in [1], in assay [2], in assay [3], in assay [4], in [5] and in assay [6] was greater than 100 µM in each case. Also, the TGI in assay [7], in assay [8], in [9], in assay [10], in assay [11] and in [12] was greater than 100 µM throughout. The TGI in assay [13], in [14], in [15], in assay [16], in [17] and in assay [18] was greater than 100 µM in each case.

For the compound `C=C1C(=O)CCC1C(=O)O` (configuration not stated), the TGI in [1], in assay [2], in [3], in assay [4], in assay [5] and in assay [6] was greater than 100 µM throughout. Besides, the TGI in assay [7], in assay [8], in assay [9], in assay [10], in assay [11] and in assay [12] was greater than 100 µM throughout. The TGI in assay [13], in [14], in assay [15], in [16], in assay [17] and in assay [18] was greater than 100 µM throughout.

Take `c1ccc(CN2CCCN3CCN(CCCN(Cc4ccccc4)CC3)CC2)cc1`: the TGI in [1] was greater than 100 µM; in [2], 36.1 µM; in assay [3], greater than 100 µM; in [4] it was greater than 100 µM; in [5], greater than 100 µM; in assay [6], greater than 100 µM. Moreover, the TGI in assay [7], in assay [8], in [9], in [10], in assay [11] and in assay [12] was greater than 100 µM throughout. For the same compound, the TGI in assay [13], in assay [14], in assay [15], in [16], in [17] and in assay [18] was greater than 100 µM throughout.

As to `FC(F)(F)c1ccc2c(c1)nc(Cc1ccc(Cl)c(Cl)c1)n2CC1CCCN2CCCCC12` (configuration not stated), the TGI is greater than 100 µM in assay [1]; 30.3 µM in [2]; greater than 100 µM in assay [3]; greater than 100 µM in [4]; greater than 100 µM in [5]; 59.7 µM in assay [6]. Moreover, the TGI was 30.8 µM in assay [7]; greater than 100 µM in assay [8]; 74.9 µM in [9]; 80.3 µM in [10]; 53.1 µM in assay [11]; greater than 100 µM in [12]. Besides, the TGI in [13] is 62.9 µM; in assay [14], 34.4 µM; in assay [15], greater than 100 µM; in [16] it was greater than 100 µM; in [17] it was greater than 100 µM; in [18], 51.7 µM.

Consider `N#Cc1nc(Sc2cnsn2)c(Sc2cnsn2)nc1C#N`, for which the TGI in [1] is greater than 30.1 µM; in assay [2], 29.4 µM; in [3], 42.4 µM; in [4] it was 61.1 µM; in assay [5], greater than 27.6 µM; in assay [6], greater than 90.1 µM. For the same compound, the TGI in assay [7] was 8.53 µM; in assay [8], 16 µM; in assay [9], 12.1 µM; in assay [10], 36.7 µM; in assay [11], greater than 78.1 µM; in assay [12], 51 µM. The TGI is greater than 59.1 µM in assay [13]; 43 µM in assay [14]; greater than 75.5 µM in assay [15]; 12.3 µM in assay [16]; 40.4 µM in assay [17]; greater than 58.8 µM in assay [18].

For `COc1cc(/C=C/C=C2\CCC/C(=C\C=C\c3ccc(O)c(OC)c3)C2=O)ccc1O`, the TGI was 10.4 µM in [1]; 27.2 µM in assay [2]; 52.7 µM in assay [3]; greater than 100 µM in assay [4]; 36.7 µM in [5]; greater than 100 µM in [6]. Further, the TGI was 3.39 µM in [7]; 39 µM in assay [8]; 52 µM in assay [9]; 64.7 µM in [10]; greater than 100 µM in [11]; 38.2 µM in assay [12]. Besides, the TGI in assay [13] is 36 µM; in assay [14], greater than 100 µM; in assay [15] it was 72.3 µM; in [16], 41.7 µM; in assay [17] it was 97.4 µM; in assay [18] it was 27 µM.

With `N#CC(c1ccccc1)N(CCc1ccccc1)C(=O)c1ccccc1` (configuration not stated), the TGI in [1] is greater than 100 µM; in assay [2], greater than 100 µM; in [3] it was greater than 85.8 µM; in assay [4], greater than 100 µM; in [5], greater than 100 µM; in assay [6], greater than 100 µM. Besides, the TGI is greater than 100 µM in assay [7]; greater than 100 µM in assay [8]; greater than 100 µM in assay [9]; greater than 100 µM in assay [10]; greater than 81 µM in assay [11]; greater than 100 µM in [12]. Further, the TGI in [13] is greater than 100 µM; in assay [14] it was 86.3 µM; in assay [15], greater than 100 µM; in assay [16] it was greater than 100 µM; in [17] it was greater than 100 µM; in assay [18], greater than 100 µM.

Take `CC(=O)Nc1ccc(-c2nc3ccccc3s2)cc1Cl`: the TGI in assay [1], in [2], in assay [3], in assay [4], in assay [5] and in assay [6] was greater than 100 µM throughout. For the same compound, the TGI in assay [7] was greater than 100 µM; in [8], greater than 100 µM; in assay [9] it was 0.445 µM; in assay [10] it was greater than 100 µM; in assay [11] it was greater than 100 µM; in [12], greater than 100 µM. Further, the TGI was greater than 100 µM in assay [13]; 93.3 µM in assay [14]; greater than 100 µM in assay [15]; 90.3 µM in assay [16]; greater than 100 µM in [17]; greater than 100 µM in assay [18].

For the compound `CC(O)CCNC(=O)Nc1c(C(F)(F)F)cc(-c2ccccc2)[nH]c1=O` (configuration not stated), the TGI in [1], in [2], in [3], in assay [4], in [5] and in assay [6] was greater than 100 µM throughout. In addition, the TGI in assay [7], in assay [8], in assay [9], in [10], in [11] and in assay [12] was greater than 100 µM each time. The TGI in [13], in assay [14], in [15], in [16], in assay [17] and in [18] was greater than 100 µM each time.

Turning to `CCCCCCCC/C=C\CCCCCCCC(=O)OC[C@]1(CO)CCC(=O)O1`, the TGI in [1], in [2], in assay [3], in [4], in assay [5] and in assay [6] was greater than 100 µM throughout. The TGI in assay [7], in assay [8], in [9], in assay [10], in [11] and in assay [12] was greater than 100 µM throughout. For the same compound, the TGI in assay [13], in assay [14], in assay [15], in assay [16], in assay [17] and in assay [18] was greater than 100 µM each time.
